# Source: patent US9695133B2, “Quinazolinone-based oncogenic-RAS-selective lethal compounds and their use” (THE TRUSTEES OF COLUMBIA UNIVERSITY IN THE CITY OF NEW YORK, priority 2012, dated 2017)
# Test system: HT-1080 cells
# Assay: Metabolite profiling (LC-MS/MS) upon erastin treatment
# Format: cell-based, human
# Details: 5 μg/mL erastin 5 h
# Protocol: 2 million HT-1080 cells were seeded in 10 cm culture dishes. […] 4 mL of cold 80% methanol was added to the cell monolayer to extract polar metabolites using a cell scraper. The cell lysate/methanol mixture was transferred to a 15 mL tube and centrifuged at 2,000×g at 4° C. for 10 minutes to pellet debris and proteins. The supernatant was transferred to a new tube and stored at −80° C. for liquid chromatography-mass spectrometry/mass spectrometry (LC-MS/MS) analysis. For lipid extract preparation, 3 mL of cold 100% isopropanol was added to the cell monolayer to scrape out cells. The resulting cell lysate/isopropanol mixture was transferred to a new 15 mL tube and centrifuged at 2,000×g at 4° C. for 10 minutes. The cleared supernatant was transferred to a new tube and stored at −20° C. for LC-MS/MS analysis.
# The metabolite extract was subjected to LC-MS/MS analysis to determine the quantity of each metabolite in each sample.
smiles,measurement,value
CCOc1ccccc1-n1c(C(C)N2CCN(C(=O)COc3ccc(Cl)cc3)CC2)nc2ccccc2c1=O (stereo not drawn) [erastin],C36:1 DAG Erastin/DMSO,0.9334
same,C36:1 DAG log2 (Erastin/DMSO),−0.09938
same,C36:1 PC Erastin/DMSO,0.6286
same,C36:1 PC log2 (Erastin/DMSO),−0.6697
same,C36:1 PE Erastin/DMSO,0.9953
same,C36:1 PE log2 (Erastin/DMSO),−0.006813
same,C36:2 DAG Erastin/DMSO,0.9163
same,C36:2 DAG log2 (Erastin/DMSO),−0.1261
same,C36:2 PC Erastin/DMSO,0.8729
same,C36:2 PC log2 (Erastin/DMSO),−0.1962
same,C36:2 PE Erastin/DMSO,0.9352
same,C36:2 PE log2 (Erastin/DMSO),−0.09672
same,C36:2 PI Erastin/DMSO,1.021
same,C36:2 PI log2 (Erastin/DMSO),0.02948
same,C36:3 DAG Erastin/DMSO,1.092
same,C36:3 DAG log2 (Erastin/DMSO),0.1266
same,C36:3 PC Erastin/DMSO,0.9251
same,C36:3 PC log2 (Erastin/DMSO),−0.1124
same,C36:4 PC Erastin/DMSO,0.9027
same,C36:4 PC log2 (Erastin/DMSO),−0.1477
same,C36:4 PI Erastin/DMSO,1.395
same,C36:4 PI log2 (Erastin/DMSO),0.4801
same,C38:2 PC Erastin/DMSO,0.8405
same,C38:2 PC log2 (Erastin/DMSO),−0.2507
same,C38:3 PC Erastin/DMSO,0.6597
same,C38:3 PC log2 (Erastin/DMSO),−0.6001
same,C38:4 PC Erastin/DMSO,0.6814
same,C38:4 PC log2 (Erastin/DMSO),−0.5533
same,C38:4 PI Erastin/DMSO,0.9823
same,C38:4 PI log2 (Erastin/DMSO),−0.02583
same,C38:5 PC Erastin/DMSO,0.8836
same,C38:5 PC log2 (Erastin/DMSO),−0.1786
same,C38:6 PC Erastin/DMSO,0.9708
same,C38:6 PC log2 (Erastin/DMSO),−0.0428
same,C44:0 TAG Erastin/DMSO,0.9683
same,C44:0 TAG log2 (Erastin/DMSO),−0.04648
same,C44:1 TAG Erastin/DMSO,1.639
same,C44:1 TAG log2 (Erastin/DMSO),0.7127
same,C46:0 TAG Erastin/DMSO,0.9424
same,C46:0 TAG log2 (Erastin/DMSO),−0.08557
same,C46:1 TAG Erastin/DMSO,1.171
same,C46:1 TAG log2 (Erastin/DMSO),0.2276
same,C46:2 TAG Erastin/DMSO,1.542
same,C46:2 TAG log2 (Erastin/DMSO),0.6247
same,C48:0 TAG Erastin/DMSO,1.098
same,C48:0 TAG log2 (Erastin/DMSO),0.1354
same,C48:1 TAG Erastin/DMSO,1.059
same,C48:1 TAG log2 (Erastin/DMSO),0.08209
same,C48:2 TAG Erastin/DMSO,1.121
same,C48:2 TAG log2 (Erastin/DMSO),0.1647
same,C48:3 TAG Erastin/DMSO,1.52
same,C48:3 TAG log2 (Erastin/DMSO),0.6042
same,C50:0 TAG Erastin/DMSO,0.9625
same,C50:0 TAG log2 (Erastin/DMSO),−0.05513
same,C50:1 TAG Erastin/DMSO,1.011
same,C50:1 TAG log2 (Erastin/DMSO),0.01634
same,C50:2 TAG Erastin/DMSO,1.073
same,C50:2 TAG log2 (Erastin/DMSO),0.1023
same,C50:3 TAG Erastin/DMSO,1.241
same,C50:3 TAG log2 (Erastin/DMSO),0.3115
same,C50:4 TAG Erastin/DMSO,1.682
same,C50:4 TAG log2 (Erastin/DMSO),0.7502
same,C50:5 TAG Erastin/DMSO,1.277
same,C50:5 TAG log2 (Erastin/DMSO),0.3528
same,C52:0 TAG Erastin/DMSO,1.041
same,C52:0 TAG log2 (Erastin/DMSO),0.05755
same,C52:1 TAG Erastin/DMSO,0.897
same,C52:1 TAG log2 (Erastin/DMSO),−0.1568
same,C52:2 TAG Erastin/DMSO,0.9964
same,C52:2 TAG log2 (Erastin/DMSO),−0.005196
same,C52:3 TAG Erastin/DMSO,1.124
same,C52:3 TAG log2 (Erastin/DMSO),0.168
same,C52:4 TAG Erastin/DMSO,1.305
same,C52:4 TAG log2 (Erastin/DMSO),0.3844
same,C52:5 TAG Erastin/DMSO,1.279
same,C52:5 TAG log2 (Erastin/DMSO),0.355
same,C52:6 TAG Erastin/DMSO,1.602
same,C52:6 TAG log2 (Erastin/DMSO),0.6796
same,C54:1 TAG Erastin/DMSO,0.8628
same,C54:1 TAG log2 (Erastin/DMSO),−0.2129
same,C54:2 TAG Erastin/DMSO,0.8696
same,C54:2 TAG log2 (Erastin/DMSO),−0.2016
same,C54:3 TAG Erastin/DMSO,0.9692
same,C54:3 TAG log2 (Erastin/DMSO),−0.04517
same,C54:4 TAG Erastin/DMSO,1.178
same,C54:4 TAG log2 (Erastin/DMSO),0.2363
same,C54:5 TAG Erastin/DMSO,1.315
same,C54:5 TAG log2 (Erastin/DMSO),0.3952
same,C54:6 TAG Erastin/DMSO,1.267
same,C54:6 TAG log2 (Erastin/DMSO),0.3411
same,C54:7 TAG Erastin/DMSO,1.062
same,C54:7 TAG log2 (Erastin/DMSO),0.08689
same,C54:8 TAG Erastin/DMSO,0.9067
same,C54:8 TAG log2 (Erastin/DMSO),−0.1413
same,C54:9 TAG Erastin/DMSO,1.331
same,C54:9 TAG log2 (Erastin/DMSO),0.4129
same,C54:10 TAG Erastin/DMSO,0.8851
same,C54:10 TAG log2 (Erastin/DMSO),−0.1761
same,C56:2 TAG Erastin/DMSO,0.9703
same,C56:2 TAG log2 (Erastin/DMSO),−0.04354
same,C56:3 TAG Erastin/DMSO,0.8103
same,C56:3 TAG log2 (Erastin/DMSO),−0.3035
same,C56:4 TAG Erastin/DMSO,0.9505
same,C56:4 TAG log2 (Erastin/DMSO),−0.07326
same,C56:5 TAG Erastin/DMSO,1.134
same,C56:5 TAG log2 (Erastin/DMSO),0.1814
same,C56:6 TAG Erastin/DMSO,1.047
same,C56:6 TAG log2 (Erastin/DMSO),0.06693
same,C56:7 TAG Erastin/DMSO,1.062
same,C56:7 TAG log2 (Erastin/DMSO),0.08653
same,C56:8 TAG Erastin/DMSO,1.178
same,C56:8 TAG log2 (Erastin/DMSO),0.2368
same,C56:9 TAG Erastin/DMSO,0.9865
same,C56:9 TAG log2 (Erastin/DMSO),−0.01961
same,C56:10 TAG Erastin/DMSO,0.9129
same,C56:10 TAG log2 (Erastin/DMSO),−0.1315
same,C58:6 TAG Erastin/DMSO,1.047
same,C58:6 TAG log2 (Erastin/DMSO),0.06641
same,C58:7 TAG Erastin/DMSO,1.071
same,C58:7 TAG log2 (Erastin/DMSO),0.09945
same,C58:8 TAG Erastin/DMSO,1.118
same,C58:8 TAG log2 (Erastin/DMSO),0.1603
same,C58:9 TAG Erastin/DMSO,1.176
same,C58:9 TAG log2 (Erastin/DMSO),0.2336
same,CMP Erastin/DMSO,0.9376
same,CMP log2 (Erastin/DMSO),−0.09295
same,DHAP Erastin/DMSO,1.227
same,DHAP log2 (Erastin/DMSO),0.2955
same,F1P Erastin/DMSO,0.9652
same,F1P log2 (Erastin/DMSO),−0.05103
same,F16DP/F26DP/G16DP Erastin/DMSO,1.303
same,F16DP/F26DP/G16DP log2 (Erastin/DMSO),0.3816
